Toxic doses and inconclusive results are not listed. Rule as the data show it: active = T/C of 150% or more; inactive = T/C below 125%.
System: L1210 leukemia ip in BDF1 mice, survival T/C
Assay: NCI In Vivo Anticancer Drug Screen. Data for tumor model L1210 Leukemia (intraperitoneal) in B6D2F1 (BDF1) mice
Conditions: endpoint: mean survival time, higher = longer survival
Method in brief: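 Tumor was transplanted into mice, which were then dosed with test compound or vehicle alone. Survival was recorded for each group, and the treated figure was expressed relative to the control figure.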

Measured: T/C

OC(CF)C(O)C(O)C(O)CF (stereo not drawn)
inactive: dose: 75.0 mg/kg/injection, schedule: Q01DX009 (ip), vehicle: saline 95 % of control | dose: 100.0 mg/kg/injection, schedule: Q01DX001 (ip), vehicle: saline 101 % of control | dose: 200.0 mg/kg/injection, schedule: Q01DX001 (ip), vehicle: saline 93 % of control | dose: 300.0 mg/kg/injection, schedule: Q01DX009 (ip), vehicle: saline 101 % of control | dose: 400.0 mg/kg/injection, schedule: Q01DX001 (ip), vehicle: saline 93 % of control

Cc1ccc(S(=O)(=O)N(C)c2cc(Cl)c(C(=O)O)c(Cl)c2)cc1
inactive: dose: 100.0 mg/kg/injection, schedule: Q04DX003 (ip), vehicle: Klucel (hydroxypropylcellulose) (HPC) 96 % of control | dose: 200.0 mg/kg/injection, schedule: Q04DX003 (ip), vehicle: Klucel (hydroxypropylcellulose) (HPC) 105 % of control | dose: 400.0 mg/kg/injection, schedule: Q04DX003 (ip), vehicle: Klucel (hydroxypropylcellulose) (HPC) 97 % of control
